Among the data in PMC8286840, “Identifying SARS-CoV-2 antiviral compounds by screening for small molecule inhibitors of Nsp3 papain-like protease” (Biochemical Journal, 2021) are remaining activity values, retold here.

Molecules are shown by their SMILES. Counter-ions that a name gives are not always drawn. Like-named read-outs stand apart in the source and are kept apart here.

In test [1] the target is T1, SARS-CoV-2 PLpro (nsp3 1564–1878) (Severe acute respiratory syndrome coronavirus 2, UniProt P0DTD1). In words: biochemical. Further details: FRET-quenched peptide (Pro3) cleavage by PLpro, 10 min pre-incubation, slope over 20 min, normalised to no-compound control. The settings on record: low concentration screen, read-out: % of control remaining.
The target of test [2] is T1, SARS-CoV-2 PLpro (nsp3 1564–1878). The experiment in a line: biochemical. Further details: FRET-quenched peptide (Pro3) cleavage by PLpro, 10 min pre-incubation, slope over 20 min, normalised to no-compound control. The settings on record: high concentration screen, read-out: % of control remaining.

For the compound `CCc1c(C(=O)NCCc2ccc(N3CCCCC3)cc2)[nH]c2ccc(Cl)cc12` [Org 27569], the remaining activity at 1.25 µM in test [1] (Well no.=6238) turned out to be 103%. Besides, the remaining activity at 3.75 µM in test [2] (Well no.=6238) turned out to be 105%.

In the case of `C=C1C(=O)[C@]23[C@H](O)[C@H]1CC[C@H]2[C@@]12CO[C@]3(O)[C@@H](O)[C@@H]1C(C)(C)CC[C@@H]2O` [Oridonin], the remaining activity at 1.25 µM in test [1] (Well no.=3255) was 101%. Also, the remaining activity at 3.75 µM in test [2] (Well no.=3255) was 103%.

`CCCCCCCCCCC[C@@H](C[C@@H]1OC(=O)[C@H]1CCCCCC)OC(=O)[C@H](CC(C)C)NC=O` [Orlistat]: the remaining activity at 1.25 µM in test [1] (Well no.=7366) was determined as 101%. Further, in test [2] (Well no.=7366), the remaining activity at 3.75 µM was determined as 101%.

Consider `Cc1ncc([N+](=O)[O-])n1CC(O)CCl` (stereo not drawn) [Ornidazole], for which the remaining activity at 1.25 µM in test [1] (Well no.=4939) came out at 101%. Further, the remaining activity at 3.75 µM in test [2] (Well no.=4939) was 97.6%.

Consider `O=C(O)c1cc(=O)[nH]c(=O)[nH]1` [Orotic acid (6-Carboxyuracil)], for which the remaining activity at 1.25 µM in test [1] (Well no.=8146) was determined as 105%. Moreover, in test [2] (Well no.=8146), the remaining activity at 3.75 µM came to 98.3%.

`O=C(O)c1cc(=O)[nH]c(=O)[nH]1` [Orotic acid]: the remaining activity at 1.25 µM in test [1] (Well no.=6207) amounted to 108%. In test [2] (Well no.=6207), the remaining activity at 3.75 µM came to 99.7%.

Take `O=C(Nc1ccc(O)cc1)c1ccccc1O` [Osalmid]: the remaining activity at 1.25 µM in test [1] (Well no.=8152) was found to be 100%. In test [2] (Well no.=8152), the remaining activity at 3.75 µM stood at 100%.

For `COc1ccc2ccc(=O)oc2c1CC=C(C)C` [Osthole], the remaining activity at 1.25 µM in test [1] (Well no.=3440) came out at 91.5%; in test [1] (Well no.=8333), 98.6%. Besides, the remaining activity at 3.75 µM in test [2] (Well no.=3440) was found to be 88.2%; in test [2] (Well no.=8333), 94.5%.

Regarding `CCNC1(C(N)=O)CCN(c2ncnc3c2nc(-c2ccccc2Cl)n3-c2ccc(Cl)cc2)CC1` [Otenabant (CP-945598) HCl], the remaining activity at 1.25 µM in test [1] (Well no.=8494) was determined as 103%. Moreover, the remaining activity at 3.75 µM in test [2] (Well no.=8494) turned out to be 108%.

With `CCNC1(C(N)=O)CCN(c2ncnc3c2nc(-c2ccccc2Cl)n3-c2ccc(Cl)cc2)CC1` [Otenabant], the remaining activity at 1.25 µM in test [1] (Well no.=8393) was determined as 93.1%. Also, the remaining activity at 3.75 µM in test [2] (Well no.=8393) came to 87.6%.

For the compound `CCCCCCCCOc1ccccc1C(=O)Nc1ccc(C(=O)OCC[N+](C)(CC)CC)cc1` [Otilonium (bromide)], the remaining activity at 1.25 µM in test [1] (Well no.=6315) stood at 103%. The remaining activity at 3.75 µM in test [2] (Well no.=6315) amounted to 97.2%.

For `CCCCCCCCOc1ccccc1C(=O)Nc1ccc(C(=O)OCC[N+](C)(CC)CC)cc1` [Otilonium Bromide], the remaining activity at 1.25 µM in test [1] (Well no.=4893) came out at 92.9%. In addition, in test [2] (Well no.=4893), the remaining activity at 3.75 µM turned out to be 93.3%.

On to `C[C@@H]1O[C@@H](O[C@H]2C[C@@H](O)[C@]3(CO)[C@H]4[C@H](O)C[C@]5(C)[C@@H](C6=CC(=O)OC6)CC[C@]5(O)[C@@H]4CC[C@]3(O)C2)[C@H](O)[C@H](O)[C@H]1O` [Ouabain], for which the remaining activity at 1.25 µM in test [1] (Well no.=1088) came to 93.1%. For the same compound, the remaining activity at 3.75 µM in test [2] (Well no.=1088) amounted to 94.6%.

With `Cc1onc(-c2ccccc2)c1C(=O)N[C@@H]1C(=O)N2[C@@H]1SC(C)(C)[C@@H]2C(=O)O` [Oxacillin (sodium monohydrate)], in test [1] (Well no.=7552), the remaining activity at 1.25 µM came out at 99.7%. In test [2] (Well no.=7552), the remaining activity at 3.75 µM worked out at 97.5%.

As to `Cc1onc(-c2ccccc2)c1C(=O)N[C@@H]1C(=O)N2[C@@H]1SC(C)(C)[C@@H]2C(=O)O` [Oxacillin], in test [1] (Well no.=2057), the remaining activity at 1.25 µM was found to be 105%. Further, in test [2] (Well no.=2057), the remaining activity at 3.75 µM came to 103%.

Consider `O=C(O)CCc1nc(-c2ccccc2)c(-c2ccccc2)o1` [Oxaprozin], for which the remaining activity at 1.25 µM in test [1] (Well no.=1090) turned out to be 102%. The remaining activity at 3.75 µM in test [2] (Well no.=1090) turned out to be 104%.

In the case of `O=c1[nH]c2ccccc2n1CCCN1CCN(C(c2ccccc2)c2ccccc2)CC1` [Oxatomide], the remaining activity at 1.25 µM amounted to 103% in test [1] (Well no.=994) and 95.4% in test [1] (Well no.=1855). The remaining activity at 3.75 µM was 101% in test [2] (Well no.=994) and 98.9% in test [2] (Well no.=1855).

Turning to `NC(=O)N1c2ccccc2CC(=O)c2ccccc21` [Oxcarbazepine], in test [1] (Well no.=2053), the remaining activity at 1.25 µM was determined as 103%. The remaining activity at 3.75 µM in test [2] (Well no.=2053) amounted to 104%.

In the case of `COC(=O)Nc1nc2cc([S+]([O-])c3ccccc3)ccc2[nH]1` (stereo not drawn) [Oxfendazole], the remaining activity at 1.25 µM in test [1] (Well no.=2059) amounted to 105%. The remaining activity at 3.75 µM in test [2] (Well no.=2059) worked out at 105%.

On to `CCCOc1ccc2[nH]c(NC(=O)OC)nc2c1` [Oxibendazole], for which the remaining activity at 1.25 µM in test [1] (Well no.=2061) came out at 99%. The remaining activity at 3.75 µM in test [2] (Well no.=2061) was 98.3%.

For the compound `NCCc1cc(O)c(O)cc1O` [Oxidopamine (hydrobromide)], the remaining activity at 1.25 µM in test [1] (Well no.=6940) was found to be 92%. The remaining activity at 3.75 µM in test [2] (Well no.=6940) is 92.3%.

As for `NC(=O)CN1CC(O)CC1=O` (stereo not drawn) [Oxiracetam], the remaining activity at 1.25 µM in test [1] (Well no.=1040) came out at 91.2%. The remaining activity at 3.75 µM in test [2] (Well no.=1040) stood at 97.5%.

On to `CCn1cc(C(=O)O)c(=O)c2cc3c(cc21)OCO3` [Oxolinic acid], for which the remaining activity at 1.25 µM in test [1] (Well no.=1134) stood at 98.1%. For the same compound, the remaining activity at 3.75 µM in test [2] (Well no.=1134) is 98.5%.

For `C[N+](C)(C)CC#CCN1CCCC1=O` [Oxotremorine methiodide], in test [1] (Well no.=1138), the remaining activity at 1.25 µM was determined as 96.9%. Also, in test [2] (Well no.=1138), the remaining activity at 3.75 µM is 97.9%.

As for `O=C1CCCN1CC#CCN1CCCC1` [Oxotremorine], the remaining activity at 1.25 µM in test [1] (Well no.=1673) is 104%. In addition, the remaining activity at 3.75 µM in test [2] (Well no.=1673) worked out at 102%.

Regarding `Cc1cc(C(C)(C)C)c(O)c(C)c1CC1=NCCN1` [Oxymetazoline (hydrochloride)], the remaining activity at 1.25 µM in test [1] (Well no.=7327) turned out to be 102%. Moreover, the remaining activity at 3.75 µM in test [2] (Well no.=7327) is 99.6%.

With `Cc1cc(C(C)(C)C)c(O)c(C)c1CC1=NCCN1` [Oxymetazoline hydrochloride], the remaining activity at 1.25 µM in test [1] (Well no.=896) was determined as 103%. Also, in test [2] (Well no.=896), the remaining activity at 3.75 µM came to 101%.

Take `CN(C)[C@@H]1C(O)=C(C(N)=O)C(=O)[C@@]2(O)C(O)=C3C(=O)c4c(O)cccc4[C@@](C)(O)[C@H]3[C@H](O)[C@@H]12` [Oxytetracycline dihydrate]: in test [1] (Well no.=4718), the remaining activity at 1.25 µM turned out to be 102%. The remaining activity at 3.75 µM in test [2] (Well no.=4718) stood at 99.6%.

As for `CC[C@H](C)[C@@H]1NC(=O)[C@H](Cc2ccc(O)cc2)NC(=O)[C@@H](N)CSSC[C@@H](C(=O)N2CCC[C@H]2C(=O)N[C@@H](CC(C)C)C(=O)NCC(N)=O)NC(=O)[C@H](CC(N)=O)NC(=O)[C@H](CCC(N)=O)NC1=O` [Oxytocin (acetate)], the remaining activity at 1.25 µM in test [1] (Well no.=8107) stood at 107%. For the same compound, the remaining activity at 3.75 µM in test [2] (Well no.=8107) was found to be 104%.

In the case of `O=C(O)/C=C/c1ccc(Cn2ccnc2)cc1` [Ozagrel HCl], the remaining activity at 1.25 µM in test [1] (Well no.=4726) was found to be 108%. The remaining activity at 3.75 µM in test [2] (Well no.=4726) was determined as 101%.

For the compound `O=C(O)/C=C/c1ccc(Cn2ccnc2)cc1` [Ozagrel], the remaining activity at 1.25 µM in test [1] (Well no.=1886) stood at 91.5%. For the same compound, the remaining activity at 3.75 µM in test [2] (Well no.=1886) is 93.9%.
